Assay results taken from article PMC11571054, “Unveiling the GT114 family: Structural characterization of A075L, a glycosyltransferase from Paramecium bursaria chlorella virus‐1 (PBCV‐1)” (Protein Science : A Publication of the Protein Society, 2024).
pKd: −log10 of the molar value.

Legend:
[1] = biological target: T1, A075L (Paramecium bursaria Chlorella virus 1, UniProt Q89410); test: ITC; type: binding
T1 construct: recombinant in E. coli BL21 Gold (SeMet in B834); GST tag cut with PreScission protease; GST kept only for mutant D73A
T1 sequence (Q89410 1-280): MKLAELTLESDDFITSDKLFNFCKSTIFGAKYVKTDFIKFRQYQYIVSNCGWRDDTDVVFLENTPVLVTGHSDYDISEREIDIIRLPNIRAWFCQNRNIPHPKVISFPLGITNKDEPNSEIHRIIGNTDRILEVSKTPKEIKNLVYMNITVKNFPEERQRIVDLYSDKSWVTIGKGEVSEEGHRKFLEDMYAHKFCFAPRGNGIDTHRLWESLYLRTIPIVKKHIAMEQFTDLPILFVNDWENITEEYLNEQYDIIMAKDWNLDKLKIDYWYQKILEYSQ

[2] = biological target: T1, A075L; test: STD-NMR; type: binding; details: 1:40 enzyme-acceptor ratio; 25 °C; binds but is not glycosylated

| SMILES | pKd [1] | STD-NMR [2] |
| --- | --- | --- |
| O=c1ccn([C@@H]2O[C@H](COP(=O)(O)OP(=O)(O)O[C@H]3OC[C@@H](O)[C@H](O)[C@H]3O)[C@@H](O)[C@H]2O)c(=O)[nH]1 [compound 1, UDP‐α‐D‐Xyl] | 4.51 |  |
| CCCCCCCCO[C@@H]1O[C@@H](C)[C@@H](O)[C@@H](O)[C@@H]1O[C@H]1O[C@H](CO)[C@H](O)[C@H](O)[C@H]1O [compound 5, α‐D‐Gal‐(1 → 2)‐α‐L‐Fuc‐Octyl] |  | despite their lower reactivity, both disaccharides can be accommodated in the binding site |
